Where two headings read alike, the source gives them in different places.
Tests used:
mice (ddY mice) = assay: Acute toxicity test; type: in vivo; conditions: oral in olive oil, mortality one week after the administration, n=5
Experimental: A test compound was dissolved or suspended in olive oil and administered orally to mice (ddY mice, ? , 23±2g, n=5). The acute toxicity value (LD₅₀) was determined from the mortality one week after the administration.

[1] = system: Acute Liver Injury Induced by Carbon Tetrachloride; assay: Protective effect on acute liver injury induced by carbon tetrachloride; type: in vivo, mice (ddY mice); conditions: for Liver Damage Index: 50mg/kg orally in olive oil 6 hours before carbon tetrachloride (0.05ml/kg orally), visual score 0: normal, 2: slightly, 4: distinctly, 6: remarkably injured, n=5, CCl4 alone 6.0; for inhibition in vivo at 50 mg/kg: Mus musculus, po, 50mg/kg orally 6 hours before carbon tetrachloride (0.05ml/kg orally), CCl4 alone 0, Normal 100
Experimental: A test compound was dissolved or suspended in olive oil and administered orally at a dose of 50mg/kg to mice (ddY mice, ? , 23 ± 2g, n=5). After 6 hours, carbon tetrachloride (0.05ml/kg) was administered orally. 24 Hours after the administration of carbon tetrachloride, BSP (sodium sulfobromophthalene; 75mg/kg) was administered intravenously. Thirty minutes later, the cardiac blood was collected, and GPT (glutamic-pyruvic transaminase) activity and the retention rate of BSP in the plasma were measured. Further, the liver injury immediately after the collection of the blood was visually observed and evaluated by the following score for liver damage index. 0: normal 2: Slightly injured 4: distinctly injured 6: remarkably injured

[2] = 24.5 h, retention rate of BSP in plasma 30 minutes after BSP 75mg/kg i.v., read-out: % Prophylaxis BSP
[3] = plasma GPT about 24.5 hours after CCl4, read-out: % Prophylaxis p-GPT

SMILES | acute toxicity value (LD50) (mice (ddY mice)) | Liver Damage Index [1] | inhibition in vivo at 50 mg/kg [1, 2] [%] | inhibition in vivo at 50 mg/kg [1, 3] [%]
CCCC(=O)C(C(=O)c1ccccc1)=C1SC=CS1 [Compound 7, 2-(1,3-dithiol-2-ylidene)-1-phenyl-1,3-hexanedione] | at least 2 g | 1.6 | 108 | 100
CC(C)CC(=O)C(C(=O)c1ccccc1)=C1SC=CS1 [Compound 8, 2-(1,3-dithiol-2-ylidene)-5-methyl-1-phenyl-1,3-hexanedione] | at least 2 g | 1.2 | 110 | 100
CC(C)(C)C(=O)C(C(=O)c1ccccc1)=C1SC=CS1 [Compound 9, 2-(1,3-dithiol-2-ylidene)-4,4-dimethyl-1-phenyl-1,3-pentanedione] |  | 0.4 | 103 | 100
CC=CC(=O)C(C(=O)c1ccccc1)=C1SC=CS1 [Compound 11, 2-(1,3-dithiol-2-ylidene)-1-phenyl-4-hexene-1,3-dione] |  | 0.8 | 105 | 100
CC(=O)C(C(=O)c1ccc(C)cc1)=C1SC=CS1 [Compound 12, 2-(1,3-dithiol-2-ylidene)-1-(4-methylphenyl)-1,3-butanedione] | at least 2 g | 0.6 | 114 | 100
CC(=O)C(C(=O)c1ccc(Cl)cc1)=C1SC=CS1 [Compound 14, 2-(1,3-dithiol-2-ylidene)-1-(4-chlorophenyl)-1,3-butanedione] |  | 0.4 | 113 | 100
CC(=O)C(C(=O)c1ccc(Br)cc1)=C1SC=CS1 [Compound 15, 2-(1,3-dithiol-2-ylidene)-1-(4-bromophenyl)-1,3-butanedione] |  | 3.2 | 105 | 100
COc1ccccc1C(=O)C(C(C)=O)=C1SC=CS1 [Compound 16, 2-(1,3-dithiol-2-ylidene)-1-(2-methoxyphenyl)-1,3-butanedione] |  | 0.6 | 95 | 99
COc1ccc(C(=O)C(C(C)=O)=C2SC=CS2)cc1 [Compound 17, 2-(1,3-dithiol-2-ylidene)-1-(4-methoxyphenyl)-1,3-butanedione] | at least 2 g | 0 | 100 | 100
COc1ccc(C(=O)C(C(C)=O)=C2SC=CS2)cc1OC [Compound 18, 2-(1,3-dithiol-2-ylidene)-1-(3,4-dimethoxyphenyl)-1,3-butanedione] |  | 0.4 | 100 | 54
CC(=O)C(C(=O)c1ccc([N+](=O)[O-])cc1)=C1SC=CS1 [Compound 19, 2-(1,3-dithiol-2-ylidene)-1-(4-nitrophenyl)-1,3-butanedione] |  | 1.6 | 100 | 100
CC(=O)C(C(=O)c1cccnc1)=C1SC=CS1 [Compound 21, 2-(1,3-dithiol-2-ylidene)-1-(3-pyridyl)-1,3-butanedione] |  | 0.8 | 100 | 98
CC(=O)C(C(=O)c1ccncc1)=C1SC=CS1 [Compound 22, 2-(1,3-dithiol-2-ylidene)-1-(4-pyridyl)-1,3-butanedione] |  | 0.2 | 120 | 100
CC(=O)C(C(=O)c1ccco1)=C1SC=CS1 [Compound 23, 2-(1,3-dithiol-2-ylidene)-1-(2-furyl)-1,3-butanedione] |  | 1.0 | 110 | 94
CC(=O)C(C(=O)c1cccs1)=C1SC=CS1 [Compound 24, 2-(1,3-dithiol-2-ylidene)-1-(2-thienyl)-1,3-butanedione] |  | 0 | 102 | 100
CC(=O)C(C(=O)c1ccc[nH]1)=C1SC=CS1 [Compound 25, 2-(1,3-dithiol-2-ylidene)-1-(2-pyrrolyl)-1,3-butanedione] |  | 2.2 | 88 | 76

SMILES | acute toxicity value (LD50) (mice (ddY mice)) | Liver Damage Index [1] | inhibition in vivo at 50 mg/kg [1, 2] [%] | inhibition in vivo at 50 mg/kg [1, 3] [%]
CC(=O)C(C(=O)c1cnccn1)=C1SC=CS1 [Compound 26, 2-(1,3-dithiol-2-ylidene)-1-pyrazinyl-1,3-butanedione] |  | 0.4 | 99 | 96
CC(=O)C(C(=O)c1cccc2ccccc12)=C1SC=CS1 [Compound 27, 2-(1,3-dithiol-2-ylidene)-1-(1-naphthyl)-1,3-butanedione] | at least 2 g | 0 | 100 | 100
CC(=O)C(C(=O)c1ccc2ccccc2c1)=C1SC=CS1 [Compound 28, 2-(1,3-dithiol-2-ylidene)-1-(2-naphthyl)-1,3-butanedione] | at least 2 g | 0 | 100 | 99
CC(=O)C(C(=O)c1cc2ccccc2[nH]1)=C1SC=CS1 [Compound 29, 2-(1,3-dithiol-2-ylidene)-1-(2-indolyl)-1,3-butanedione] |  | 0.8 | 104 | 100
CC(=O)C(C(=O)c1ccc2ccccc2n1)=C1SC=CS1 [Compound 30, 2-(1,3-dithiol-2-ylidene)-1-(2-quinolyl)-1,3-butanedione] |  | 2.0 | 105 | 98
O=C(C(C(=O)C(F)(F)F)=C1SC=CS1)c1ccccc1 [Compound 31, 2-(1,3-dithiol-2-ylidene)-1-phenyl-4,4,4-trifluoro-1,3-butanedione] |  | 0.4 | 106 | 100
CC(=O)C(C(=O)Cc1ccccc1)=C1SC=CS1 [Compound 32, 3-(1,3-dithiol-2-ylidene)-1-phenyl-2,4-pentanedione] |  | 0.4 | 124 | 95
CC(=O)C(C(=O)C=Cc1ccccc1)=C1SC=CS1 [Compound 33, 4-(1,3-dithiol-2-ylidene)-1-phenyl-1-hexene-3,5-dione] |  | 4.2 | 86 | 77
O=C(C(C(=O)c1ccccc1)=C1SC=CS1)c1ccccc1 [Compound 34, 2-(1,3-dithiol-2-ylidene)-1,3-diphenyl-1,3-propanedione] |  | 0.8 | 112 | 100
O=C(C(C(=O)c1ccc(Cl)cc1)=C1SC=CS1)c1ccc(Cl)cc1 [Compound 35, 2-(1,3-dithiol-2-ylidene)-1,3-di(4-chlorophenyl)-1,3-propanedione] |  | 0 | 114 | 100
COc1ccc(C(=O)C(C(=O)c2ccc(OC)cc2)=C2SC=CS2)cc1 [Compound 36, 2-(1,3-dithiol-2-ylidene)-1,3-di(4-methoxyphenyl)-1,3-propanedione] |  | 0 | 119 | 100
O=C(Cc1ccccc1)C(C(=O)c1ccccc1)=C1SC=CS1 [Compound 37, 2-(1,3-dithiol-2-ylidene)-1,4-diphenyl-1,3-butanedione] |  | 1.8 | 99 | 100
O=C(C=Cc1ccccc1)C(C(=O)c1ccccc1)=C1SC=CS1 [Compound 38, 4-(1,3-dithiol-2-ylidene)-1,5-diphenyl-1-pentene-3,5-dione] |  | 3.2 | 96 | 66
CC(=O)C(C(=O)c1ccc(O)cc1)=C1SC=CS1 [Compound 45, 2-(1,3-dithiol-2-ylidene)-1-(4-hydroxyphenyl)-1,3-butanedione] | at least 2 g | 0.2 | 111 | 100
CC(=O)C(C(=O)c1ccc(N)cc1)=C1SC=CS1 [Compound 46, 2-(1,3-dithiol-2-ylidene)-1-(4-aminophenyl)-1,3-butanedione] |  | 0.4 | 106 | 100
